This is an account of results in patent US20180344702A1, “METHODS FOR TREATING PATIENTS WITH HEMATOLOGIC MALIGNANCIES” (Aptose Biosciences, Inc., priority 2017, published 2018).

Molecules are shown by their SMILES. pIC50, pKd: −log10 of the molar value.

For experiment [1], the system named is Ramos. In words: Polyploidy in B-cell lines (Edu and PI staining, FACS). In kind it is cell-based. The conditions noted are these: 5 nM. The method, then:
Further mechanistic studies were undertaken to fully elucidate Compound 7's potent cytotoxicity. B-cell lines were treated with vehicle or Compound 7 for 24-72 hours and the increase in DNA content or polyploidy phenotype was assessed using Edu and PI staining followed by FACS analysis using the BD Accuri C6 flow cytometer.
Mino and Ramos cell lines were treated with increasing concentrations of.

Experiment [2] concerns human cells (e.g., FLTs-ITD-mutated leukemia cells MV4-11). The experiment in a line: Mouse xenograft model, tumor volume. Conditions: several doses over a 22-day period, vs control or Ibrutinib. Type of experiment: in vivo, mice. As to the method:
Animal Study: Balb/c mice were injected (SQ) with human cells (e.g., FLTs-ITD-mutated leukemia cells MV4-11), and treated orally (q.d.) with the indicated doses of Compound 7 for 14 days. The effect (e.g., anti-leukemia) was assessed by measuring tumor burden. Oral toxicity was evaluated, for example, by measuring body weight. Compound 7 concentrations in plasma were measured at the indicated time points after dosing at the first day.

The next experiment concerns Raji. The experiment in a line: Cytotoxicity, MTS cell viability. In kind it is cell-based. Conditions: Burkitt's, 3 days MTS. The method, then:
(§1) Cells were seeded in a 96 well plate and treated with either vehicle (DMSO) or compound 7 at 10 different concentrations for 3 days at 37° C. and 5% CO2. Cell viability was assessed using CellTiter 96 AQueous one solution (MTS Promega Cat#G3581), and IC50 values calculated using GraphPad Prism 7 software.
(§2) Cytotoxicity procedure: Cells were seeded in 96-well plate and treated with vehicle DMSO or Compound 7 at a specified concentration and incubated for 72 hours.

The next experiment deals with SU-DHL6. In words: Cytotoxicity, MTS cell viability. The conditions noted are these: Homo sapiens, SU-DHL-6, 72 h, DLBCL / GCB-DLBCL, 3 days MTS. Type of experiment: cell-based. The method, then:
as §1, §2

A further experiment has as its system GRANTA-519. The experiment in a line: Cytotoxicity, MTS cell viability. Conditions: Homo sapiens, 72 h, MCL, 3 days MTS. In kind it is cell-based. As to the method: as §1, §2
A further experiment concerns K562. In words: Cytotoxicity, MTS cell viability. Type of experiment: cell-based. The conditions noted are these: Homo sapiens, 72 h, CML, 3 days MTS. As to the method:
as §1, §2

In a further experiment the test system is Mino. The experiment in a line: Cytotoxicity, MTS cell viability. In kind it is cell-based. The conditions noted are these: Homo sapiens, 72 h, MCL, 3 days MTS. As to the method:
as §1, §2

In the next experiment the test system is Daudi. In words: Cytotoxicity, MTS cell viability. Type of experiment: cell-based. Conditions: Homo sapiens, 72 h, Burkitt's, 3 days MTS. As to the method: as §1, §2
The subject of another experiment is Jeko-1. In words: Cytotoxicity, MTS cell viability. In kind it is cell-based. The conditions noted are these: Homo sapiens, 72 h, MCL, 3 days MTS. As to the method:
as §1, §2

The subject of another experiment is RL. The experiment in a line: Cytotoxicity, MTS cell viability. In kind it is cell-based. Conditions: Homo sapiens, 72 h, DLBCL / GCB-DLBCL, 3 days MTS. As to the method:
as §1, §2

For another experiment, the system named is MEC-1. The experiment in a line: Cytotoxicity, MTS cell viability. Type of experiment: cell-based. Conditions: CLL, 3 days MTS. As to the method:
as §1, §2

In experiment [3] the test system is Ramos. In words: Cytotoxicity, MTS cell viability. Type of experiment: cell-based. The conditions noted are these: Homo sapiens, 72 h, Burkitt's, 3 days MTS. As to the method:
as §1, §2

The next experiment relates to RS411. The experiment in a line: Cytotoxicity, MTS cell viability. In kind it is cell-based. The conditions noted are these: Homo sapiens, RS4-11, 72 h, ALL / B-ALL, 3 days MTS. The method, then:
as §1, §2

The subject of experiment [4] is BTK and Aurora kinase in Ramos cells. In words: Cell signaling in Ramos cells (Western blot). Type of experiment: cell-based. Conditions: relative to ibrutinib. The method, then:
Immunoblot assays: Cells were treated with Compound 7 at various concentrations and collected for cell lysates. The total and phosphorylated levels of the indicated proteins were determined by Western Blot.
For orientation: In western blotting, separated proteins are transferred to a membrane and probed.

The target of another experiment is T1, FLT3(ITD-F691L) (Homo sapiens, UniProt P36888, F691L, form not given).
T1 construct: kinase-tagged T7 phage strains were prepared in an E. coli host derived from the BL21 strain; fused on or other part: T7 phage fusion or DNA tag for qPCR detection
The experiment in a line: Binding constant (Kd), competition binding with qPCR readout. As to the method:
Measurements of said kinase activity are referred to as binding constants or Kd values. The protocol for obtaining these values is hereby described. For most assays, kinase-tagged T7 phage strains were prepared in an E. coli host derived from the BL21 strain. E. coli were grown to log-phase and infected with T7 phage and incubated with shaking at 32° C. until lysis. The lysates were centrifuged and filtered to remove cell debris. The remaining kinases were produced in HEK-293 cells and subsequently tagged with DNA for qPCR detection. […] The liganded beads were blocked with excess biotin and washed with blocking buffer (SeaBlock (Pierce), 1% BSA, 0.05% Tween 20, 1 mM DTT) to remove unbound ligand and to reduce nonspecific binding. […] Test compounds were prepared as 111× stocks in 100% DMSO. Kds were determined using an 11-point 3-fold compound dilution series with three DMSO control points. […] The compounds were then diluted directly into the assays such that the final concentration of DMSO was 0.9%. All reactions performed in polypropylene 384-well plate. Each was a final volume of 0.02 ml. […] The kinase concentration in the eluates was measured by qPCR.
(Real-time PCR tracks product formation cycle by cycle.)

For the next experiment, the target named is T2, FLT3(D835Y) (Homo sapiens, UniProt P36888, D835Y).
T2 construct: made in house; host or cells: E. coli BL21-derived host (T7 phage) or HEK-293
The experiment in a line: Inhibition of FLT3 mutants, kinase IC50. In kind it is biochemical. The method, then: RBC HotSpot Kinase Assay Protocol:
Reagents used: Base Reaction buffer; 20 mM Hepes (pH 7.5), 10 mM MgCl2, 1 mM EGTA, 0.02% Brij35, 0.02 mg/ml BSA, 0.1 mM Na3VO4, 2 mM DTT, 1% DMSO. Required cofactors are added individually to each kinase reaction.
Compound 7 was dissolved in 100% DMSO to a specified concentration. The serial dilution was conducted by epMotion 5070 in DMSO. The substrate was freshly prepared in Reaction Buffer and any required cofactors to the substrate solution were added. The kinase was added to the solution and gently mixed. Compound 7 was added in 100% DMSO into the kinase reaction mixture by Acoustic technology (Echo550; nanoliter range), and incubated for 20 min at room temperature. ^33P-ATP (Specific activity 10 μCi/μl) was added into the reaction mixture to initiate the reaction, which was incubated for 2 hours, whereupon kinase activity was detected by the filter-binding method.

The subject of experiment [5] is Ba/F3 cells transfected with FLT3 WT. In words: Cytotoxicity in isogenic transfected Ba/F3 cells (Table 4). In kind it is cell-based, Murin. The conditions noted are these: Mus musculus, BaF3, read-out: IC50 in Transfected Ba/F3 cells, FLT3 WT.
The test system of experiment [6] is various heme cell lines (MV4-11, NOMO-1, and KG-1 cells). In words: Polyploidy, EdU and PI staining with FACS. In kind it is cell-based. The conditions noted are these: 24 hours, increasing concentrations. As to the method:
MV4-11, NOMO-1, and KG-1 cells were treated at increasing concentrations of Compound 7 for 24 hours, and the increase in DNA content or polploidy phenotype was assessed using EdU and PI staining followed by FACS analysis using the BD Accuri C6 flow.

In the case of `Cc1cnc(-c2ccc(-c3ccc(NC(=O)Nc4c(F)cc(F)cc4F)cc3F)c3c2C(=O)NC3)[nH]1` [Compound 7, 1-{3-fluoro-4-[7-(5-methyl-1H-imidazol-2-yl)-1-oxo-2,3-dihydro-1H-isoindol-4-yl]-phenyl}-3-(2,4,6-trifluorophenyl)urea], in the experiment with Ramos [1], the “Polyploidy (>4n) followed by apoptosis” value is “effectively induced polyploidy (>4n) followed by apoptosis”. In experiment [2], the Tumor volume entry is recorded as “reduces tumor volume with increased dose”. Besides, the pIC50 was 5.69 in the experiment on Raji; 5.69 with Raji (Homo sapiens, 72 h); 6.92 with SU-DHL6; 7.87 in the experiment on GRANTA-519; 4.89 with K562; 8.22 in the experiment with Mino. Moreover, the pIC50 is 6.78 with Daudi; 7.13 in the experiment with Jeko-1; 6.37 in the experiment with RL; 5.42 with MEC-1; 5.42 with MEC-1 (Homo sapiens, MEC1, 72 h); 7.73 in the experiment with Ramos [3]. Also, the pIC50 with RS411 was 8.82; against FLT3(D835Y), 6.78; in experiment [5], 7.95. Besides, the “BTK and Aurora kinase activity” value in [4] is “inhibits BTK and Aurora kinase activity”. For the same compound, the pKd (as a rule, the Kd on a negative log10 scale, so that one unit is a factor of ten) on FLT3(ITD-F691L) is 7.82. Besides, in experiment [6], the Polyploidies result is “induce polyploidies”.
